Data reported in US7396851B2, “Heterocyclic and benzoheterocyclic polyamides structurally related to the natural antibiotic distamycin A for the treatment of β-thalassaemia” (priority 2001, dated 2008).
Structures can show the parent of a compound that is named as a salt.

What was measured:
human cell line K562 = assay: Erythroid differentiation of K562 cells (benzidine-positive cells); assay type: cell-based; details: mean±SD of five independent experiments
Procedure: The activity of the distamycin analogues described previously as inducers of erythroid cell differentiation was evaluated by studying the erythroid differentiation induced in human cell cultures.
The biological activity was evaluated by examining the capacity of those compounds to induce erythroid differentiation in the human cell line K562, which is capable of undergoing erythroid differentiation by expressing the genes for γ-globin if subjected to treatment with modifiers of the biological response that are suitable for the purpose (19-24). The level of differentiation was evaluated by analysing the positive reaction of the cells to benzidine (23). Some of the data obtained are given in Table 1, which represents the results of five independent experiments (mean±SD).

mRNA for γ-globin = assay: Expression of genes coding for γ-globins by RT-PCR / Northern blotting in K562 cells; assay type: cell-based, human; details: concentration 50 nM, quantitative RT-PCR, untreated control = 1
Procedure: The expression of genes coding for γ-globins was evaluated by RT-PCR (reverse transcriptase PCR) and Northern blotting (25). […] The evaluations were carried out after 6 days' induction with the indicated molecules.
The Technique used is that of quantitative RT-PCR (28, 29) using the following oligonucleotide primers and probe: γ-globin forward primer, 5′-TGGCAAGAAGGTGCTGACTTC-3′; γ-globin reverse primer, 5′-TCA CTC AGC TGG GCA AAG G-3′; probe γ-globin, 5′-FAM-TGGGAGATGCCATAAAGCACCTGG-TAMRA-3′(FAM=6-carboxy fluorescein, TAMRA=6-carboxy-N,N,N′,N′-tetramethylrhodamine).

Compound | erythroid differentiation (%) = percentage of K562 cells that react positively to benzidine (human cell line K562; concentration 50 nM) [%] | further results
Cn1cc(NC(=O)c2cc(NC(=O)c3cc(N(CC4CO4)CC4CO4)cn3C)cn2C)cc1C(=O)NCC/C(N)=N/C#N (stereo not drawn) [Compound 5, 3-(1-methyl-4-(1-methyl-4-(1-methyl-4-(N,N-bis(2-oxiranylmethyl)amino)pyrrole-2-carboxamido)pyrrole-2-carboxamido)pyrrole-2-carboxamido)cyanopropionamidine hydrochloride] | 77 ± 10.1 | 
Cn1cc(NC(=O)c2cc(NC(=O)c3cc(NC(=O)c4cc5cc(N(CCCl)CCCl)ccc5o4)cn3C)cn2C)cc1C(=O)NCCC(=N)N [Compound 3, 3-(1-methyl-4-(1-methyl-4-(1-methyl-4-(5-N,N-bis(2-chloroethyl)aminobenzofurane-2-carboxamido)pyrrole-2-carboxamido)pyrrole-2-carboxamido)pyrrole-2-carboxamido)propionamidine hydrochloride] |  | erythroid differentiation (%) = percentage of K562 cells that react positively to benzidine (human cell line K562; concentration 100 nM): 72.4 ± 10.2%
Cl.Cn1cc(NC(=O)c2cc(NC(=O)c3nc(NC(=O)c4ccc(N(CCCl)CCCl)cc4)cn3C)cn2C)cc1C(=O)NCCC(=N)N [Compound 2, 3-(1-methyl-4-(1-methyl-4-(1-methyl-4-(4-(N,N-bis(2-chloroethyl)amino)benzenecarboxamido)imidazole-2-carboxamido)pyrrole-2-carboxamido)pyrrole-2-carboxamido)propionamidine hydrochloride] | 85.2 ± 12.8 | 
Cl.Cn1cc(NC(=O)c2cc(NC(=O)c3cc(NC(=O)c4ccc(N(CCCl)CCCl)cc4)cn3C)cn2C)cc1C(=O)NCCC(=N)N [Compound 1, 3-(1-methyl-4-(1-methyl-4-(1-methyl-4-(4-(N,N-bis(2-chloroethyl)amino)benzenecarboxamido)pyrrole-2-carboxamido)pyrrole-2-carboxamido)pyrrole-2-carboxamido)propionamidine hydrochloride] | 65.5 ± 8.8 | mRNA for γ-globin, increase compared with untreated control K562 cells (mRNA for γ-globin): 11.5 ± 2.5
CN(C)CCCNC(=O)c1cc2cc(NC(=O)c3cc4cc(NC(=O)c5ccc(N(CCCl)CCCl)cc5)ccc4[nH]3)ccc2o1 [Compound 4, N-(3′-dimethylaminopropyl)-5-(5-(4-(bis(2-chloroethyl)amino)benzoylamino)-1H-indol-2-carboxamido)benzofurane-2-carboxamido hydrochloride] |  | erythroid differentiation (%) = percentage of K562 cells that react positively to benzidine (human cell line K562; concentration 500 nM): 30 ± 3.8%
